Assay results: ChEMBL document CHEMBL3046503, “Insulinotropic activity of chromonyl-2,4-thiazolidinediones” (2009)

Tests used:
Assay type in all cases: functional
INS1 [1] = experiment: Insulinotropic activity in Rattus norvegicus (rat) INS-1 cells assessed as increase of glucose-induced insulin release at 0.01 mg/ml after 90 min by radioimmunoassay relative to 5.6 mM of glucose
INS1 [2] = experiment: Insulinotropic activity in Rattus norvegicus (rat) INS-1 cells assessed as increase of glucose-induced insulin release at 0.001 mg/ml after 90 min by radioimmunoassay relative to 5.6 mM of glucose
INS1 [3] = experiment: Insulinotropic activity in Rattus norvegicus (rat) INS-1 cells assessed as increase of glucose-induced insulin release at 3 mM after 90 min by radioimmunoassay relative to 5.6 mM of glucose

## CCOC(=O)CN1C(=O)S/C(=C/c2coc3ccccc3c2=O)C1=O
INS1 [1]
  Activity: 65.53%
INS1 [2]
  Activity: 83.15%

## O=C1NC(=O)/C(=C\c2coc3ccc([N+](=O)[O-])cc3c2=O)S1
INS1 [1]
  Activity: 69.2%
INS1 [2]
  Activity: 81.44%

## Cc1ccc2occ(/C=C3/SC(=O)NC3=O)c(=O)c2c1
INS1 [1]
  Activity: 75.61%
INS1 [2]
  Activity: 90.53%

## Cc1cc(C)c2occ(/C=C3/SC(=O)NC3=O)c(=O)c2c1
INS1 [1]
  Activity: 84.64%
INS1 [2]
  Activity: 85.89%

## CC(C)c1ccc2occ(/C=C3/SC(=O)NC3=O)c(=O)c2c1
INS1 [1]
  Activity: 81.55%
INS1 [2]
  Activity: 89.46%

## O=C(O)CN1C(=O)S/C(=C/c2coc3ccc([N+](=O)[O-])cc3c2=O)C1=O
INS1 [1]
  Activity: 111%
INS1 [2]
  Activity: 107.8%

## Cc1ccc2occ(/C=C3/SC(=O)N(CC(=O)O)C3=O)c(=O)c2c1
INS1 [1]
  Activity: 120.7%
INS1 [2]
  Activity: 102.2%

## CCOC(=O)CN1C(=O)S/C(=C/c2coc3c(C)cc(C)cc3c2=O)C1=O
INS1 [1]
  Activity: 154.4%
INS1 [2]
  Activity: 138%

## CC(C)c1ccc2occ(/C=C3/SC(=O)N(CC(=O)O)C3=O)c(=O)c2c1
INS1 [1]
  Activity: 144.3%
INS1 [2]
  Activity: 125.6%

## O=C1NC(=O)/C(=C\c2coc3ccccc3c2=O)S1
INS1 [1]
  Activity: 63.57%
INS1 [2]
  Activity: 83.98%

## CCOC(=O)CN1C(=O)S/C(=C/c2coc3ccc(C(C)C)cc3c2=O)C1=O
INS1 [1]
  Activity: 180.5%
INS1 [2]
  Activity: 138.5%

## CCOC(=O)CN1C(=O)S/C(=C/c2coc3ccc([N+](=O)[O-])cc3c2=O)C1=O
INS1 [1]
  Activity: 74.1%
INS1 [2]
  Activity: 98.8%

## O=C(O)CN1C(=O)S/C(=C/c2coc3ccccc3c2=O)C1=O
INS1 [1]
  Activity: 121%
INS1 [2]
  Activity: 117.2%

## CCOC(=O)CN1C(=O)S/C(=C/c2coc3ccc(C)cc3c2=O)C1=O
INS1 [1]
  Activity: 177.7%
INS1 [2]
  Activity: 153.1%

## Cc1cc(C)c2occ(/C=C3/SC(=O)N(CC(=O)O)C3=O)c(=O)c2c1
INS1 [1]
  Activity: 131.6%
INS1 [2]
  Activity: 102.8%

## OC[C@H]1OC(O)[C@H](O)[C@@H](O)[C@@H]1O (some centres not stated) [DEXTROSE]
INS1 [3]
  Activity: 73%

## COc1ccc(Cl)cc1C(=O)NCCc1ccc(S(=O)(=O)NC(=O)NC2CCCCC2)cc1 [GLYBURIDE]
INS1 [2]
  Activity: 179.6%
